From patent US8343996B2, “Azaquinolinone derivatives and uses thereof” (AstraZeneca AB, priority 2008, dated 2013)
“And” between values parts separate entries of the source, which are not always exact repeats. Equal values may be shown once.

The compounds below were run on farnesyl transferase (FTase) (assay: Cytosolic Ras assay for measurement of farnesyl transferase activity (RAS Cell Assay)). Settings: COS-7 cells, 24 hr treatment in 0.2% DMSO; cytosolic Ras by Western blot, Ras/actin ratio.
Format: cell-based, African green monkey
Text: Ras is a small GTP binding protein whose farnesylation and consequent membrane association can be reduced by inhibition of farnesyl transferase (Appels et al., Oncologist 10:565-578, 2005; Basso et al., J. Lipid Res. 47:15-31, 2006; Tamanoi, Trends Biochem. Sci. 18:349-353, 1993; each of which is incorporated herein by reference). […] Treatment with a compound of the invention reduces the farnesylation and membrane association of Ras, leading to accumulation of Ras in the cytosol of the cells. An assay was developed to monitor FTase activity, based on the amount of Ras present in the cytosolic fraction of COS-7 cells after FTI treatment. On day 0, COS-7 cells were passaged into 6-well plates at a density of 4×10^5 cells/well. Beginning on day 1, cells were treated with a compound of the invention in 0.2% DMSO for 24 hr. On day 2, cells were lysed by passage through a 25 gauge needle 10 times in 100 μl Buffer 1 (50 mM Tris, 140 mM NaCl, 2 mM EDTA, protease inhibitor cocktail, pH 7.4) and lysates were centrifuged at 16,000 g for 30 min to isolate the cytosolic fraction (supernatant). The cytosolic fraction was analyzed by Western blot using anti-Ras antibody and anti-actin antibody for loading control. Results were quantified based on densitometric analysis of Ras signal normalized to actin signal (Ras/actin ratio). Treatment with a compound of the invention increases the amount of Ras in the cytosolic fraction in a dose-dependent manner. Using this method, compounds of the invention were analyzed for their ability to inhibit FTase activity, in that an increase in the Ras/actin ratio indicates inhibition of FTase.
In the case of COc1cccc(-c2cc(=O)n(C)c3ncc([C@@](N)(c4ccc(Cl)cc4)c4cncn4C)cc23)c1 [Compound 5b, 6-(amino(4-chlorophenyl)(1-methyl-1H-imidazol-5-yl)methyl)-4-(3-methoxyphenyl)-1-methyl-1,8-naphthyridin-2(1H)-one], the IC50 is reported as 300 nM. C#Cc1cccc(-c2cc(=O)n(C)c3ncc([C@@](O)(c4ccc(Cl)cc4)c4cncn4C)cc23)c1 [Compound 4a] gave an IC50 of 300 nM. With COc1cccc(-c2cc(=O)n(C)c3ncc([C@@](O)(c4ccc(Cl)cc4)c4cncn4C)cc23)c1 [Compound 6b, 6-((4-chlorophenyl)(hydroxy)(1-methyl-1H-imidazol-5-yl)methyl)-4-(3-methoxyphenyl)-1-methyl-1,8-naphthyridin-2(1H)-one] the IC50 was 190 nM. C#Cc1cccc(-c2cc(=O)n(C)c3ncc([C@](O)(c4ccc(Cl)cc4)c4cncn4C)cc23)c1 [Compound 4b] was tested, and the IC50 was 0.57 nM and 0.54 nM. For COc1cccc(-c2cc(=O)n(C)c3ncc([C@](N)(c4ccc(Cl)cc4)c4cncn4C)cc23)c1 [Compound 5a, 6-(amino(4-chlorophenyl)(1-methyl-1H-imidazol-5-yl)methyl)-4-(3-methoxyphenyl)-1-methyl-1,8-naphthyridin-2(1H)-one], the IC50 was 3.9 nM and 2 nM. In the case of COc1cccc(-c2cc(=O)n(C)c3ncc([C@](O)(c4ccc(Cl)cc4)c4cncn4C)cc23)c1 [Compound 6a, 6-((4-chlorophenyl)(hydroxy)(1-methyl-1H-imidazol-5-yl)methyl)-4-(3-methoxyphenyl)-1-methyl-1,8-naphthyridin-2(1H)-one], the IC50 is reported as 2.3 nM and 4.2 nM.
